{
  "source": "patent US9481673B2",
  "about": "“6-alkynyl-pyridine derivatives” (Boehringer Ingelheim International GmbH, priority 2014, dated 2016)",
  "key": {"[1]": {"target": "cIAP1 BIR3 (Homo sapiens (Human), UniProt Q13490)", "test": "cIAP1 BIR3 binding assay (DELFIA), BIR3-SMAC peptide interaction", "conditions": "(S)-isomers; BIR3 domain 10 nM, SMAC peptide 10 nM; read-out: cIAP1 BIR-3 IC50"}, "[2]": {"target": "P450 2C8 (Homo sapiens (Human), UniProt P10632)", "test": "Cytochrome P450 isoenzyme inhibition assay, deethylation of Amodiaquine", "assay_type": "in vitro ADME", "conditions": "(S)-isomers; human liver microsomes, 37° C."}, "[3]": {"target": "P450 2D6 (Homo sapiens (Human), UniProt P10635)", "test": "Cytochrome P450 isoenzyme inhibition assay, demethylation of Dextromethorphan", "assay_type": "in vitro ADME", "conditions": "(S)-isomers; human liver microsomes, 37° C."}, "[4]": {"target": "P450 3A4 (Homo sapiens (Human), UniProt P08684)", "test": "Cytochrome P450 isoenzyme inhibition assay, hydroxylation of Midazolam", "assay_type": "in vitro ADME", "conditions": "(S)-isomers; human liver microsomes, 37° C."}, "[5]": {"test": "Solubility measurement (DMSO solution precipitation method)", "assay_type": "physicochemical", "conditions": "aqueous buffer, kinetic from dmso stock; (S)-isomers; McIlvaine buffer pH 6.8, 24 h shaking at ambient temperature; read-out: Sol pH 6.8"}, "[6]": {"target": "P450 2C19 (Homo sapiens (Human), UniProt P33261)", "test": "Cytochrome P450 isoenzyme inhibition assay, hydroxylation of Mephenytoin", "assay_type": "in vitro ADME", "conditions": "(S)-isomers; human liver microsomes, 37° C."}, "[7]": {"target": "P450 2C9 (Homo sapiens (Human), UniProt P11712)", "test": "Cytochrome P450 isoenzyme inhibition assay, hydroxylation of Diclofenac", "assay_type": "in vitro ADME", "conditions": "(S)-isomers; human liver microsomes, 37° C."}},
  "data": [
    {"compound": "CN[C@@H](C)C(=O)Nc1ccc(-c2c(-c3ccnc(C)c3)nc3cc(C)ccn23)c(C#Cc2ccc3c(C)nccc3c2)n1", "note": "[(S)-2, (2S)-N-{5-[7-methyl-2-(2-methylpyridin-4-yl)imidazo[1,2-a]-pyridin-3-yl]-6-[2-(1-methylisoquinolin-6-yl)ethynyl]pyridin-2-yl}-2-(methylamino)-propanamide]", "values": [
      {"measurement": "IC50", "setting": "[1]", "result": 1, "unit": "nM"},
      {"measurement": "IC50", "setting": "[2]", "result": 900, "unit": "nM"},
      {"measurement": "IC50", "setting": "[3]", "result": "> 50000", "unit": "nM"},
      {"measurement": "IC50", "setting": "[4]", "result": "> 50000", "unit": "nM"},
      {"measurement": "solubility kinetic at 24 h", "setting": "[5]", "result": 8, "unit": "µg/mL"},
      {"measurement": "IC50", "setting": "[6]", "result": 1900, "unit": "nM"},
      {"measurement": "IC50", "setting": "[7]", "result": "> 50000", "unit": "nM"}
    ]}
  ]
}
